Measurements: ChEMBL document CHEMBL5724696, “Autophagy assay results for EUbOPEN Chemogenomics Library” (2024)

Key:
Type in all cases: functional, Homo sapiens
U2OS [1] = test: (§1) Here: values are normalized to the negative (DMSO; defined as 0% autophagy induction) and positive (250nM Torin1; mTOR inhibitor; defined as maximal inducer of autophagy = 100%) control compounds and represented as % of autophagy induction. […] The impact of autophagy induction on cells is complex and depends on the affected target. As such, the magnitude of a phenotype may not be equally mirrored in the %-value of autophagy induction and vice versa. The dynamics of the induction may indicate the mode of activation: e.g. activation via phosphorylation or a signaling cascade may occur fast, while activation via transcription factors may take considerably longer. […] Of note, treatment concentrations may be sub-optimal for specific compounds, leading to false negative annotations.; details: Culturing Media DMEM, 1 % Penicillin/Streptomycin, 10% Fetal bovin serum Add-On: No, Screening Media Control DMEM, Screening Media Samples DMEM
U2OS [2] = test: as §1; details: Culturing Media DMEM, 1 % Penicillin/Streptomycin, 10% Fetal bovin serum Add-On: No, Screening Media Control DMEM, Screening Media Samples DMEM; remark: listed apart in the source
TERT-RPE1 = test: as §1; details: Culturing Media DMEM/F12 (1:1), 1 % Penicillin/Streptomycin, 10% Fetal bovin serum Add-On: No, Screening Media Control DMEM/F12 (1:1), Screening Media Samples DMEM/F12 (1:1)
[3] = Compound Concentration 0.5 uM, Timepoint 12 hours
[4] = Compound Concentration 0.5 uM, Timepoint 24 hours
[5] = Compound Concentration 0.5 uM, Timepoint 36 hours
[6] = Compound Concentration 0.5 uM, Timepoint 60 hours
[7] = Compound Concentration 2 uM, Timepoint 12 hours
[8] = Compound Concentration 2 uM, Timepoint 24 hours
[9] = Compound Concentration 2 uM, Timepoint 36 hours
[10] = Compound Concentration 2 uM, Timepoint 60 hours
[11] = Compound Concentration 10 uM, Timepoint 12 hours
[12] = Compound Concentration 10 uM, Timepoint 24 hours
[13] = Compound Concentration 10 uM, Timepoint 36 hours
[14] = Compound Concentration 10 uM, Timepoint 60 hours

O=C1N/C(=N/c2ccccc2F)S/C1=C\c1ccc(C(=O)O)cc1
autophagy induction (U2OS [1]; [3]): -6.588% | autophagy induction (U2OS [1]; [4]): -6.026% | autophagy induction (U2OS [1]; [5]): -1.651% | autophagy induction (U2OS [1]; [6]): -8.214% | autophagy induction (U2OS [1]; [7]): 1.845% | autophagy induction (U2OS [1]; [8]): 3.048% | autophagy induction (U2OS [1]; [9]): 0.4254% | autophagy induction (U2OS [1]; [10]): -3.587% | autophagy induction (U2OS [1]; [11]): 7.038% | autophagy induction (U2OS [1]; [12]): 3.001% | autophagy induction (U2OS [1]; [13]): 3.146% | autophagy induction (U2OS [1]; [14]): -8.731% | autophagy induction (U2OS [2]; [3]): 1.731% | autophagy induction (U2OS [2]; [4]): 0.03156% | autophagy induction (U2OS [2]; [5]): -1.478% | autophagy induction (U2OS [2]; [6]): 0.04429% | autophagy induction (U2OS [2]; [7]): 4.489% | autophagy induction (U2OS [2]; [8]): 0.7124% | autophagy induction (U2OS [2]; [9]): -0.5769% | autophagy induction (U2OS [2]; [10]): 0.3402% | autophagy induction (U2OS [2]; [11]): -30.0859% | autophagy induction (U2OS [2]; [12]): -13.2121% | autophagy induction (U2OS [2]; [13]): -8.741% | autophagy induction (U2OS [2]; [14]): -4.602% | autophagy induction (TERT-RPE1; [3]): -10.0262% | autophagy induction (TERT-RPE1; [4]): -9.4115% | autophagy induction (TERT-RPE1; [5]): -12.0012% | autophagy induction (TERT-RPE1; [6]): -17.4269% | autophagy induction (TERT-RPE1; [7]): -2.621% | autophagy induction (TERT-RPE1; [8]): -7.325% | autophagy induction (TERT-RPE1; [9]): -9.455% | autophagy induction (TERT-RPE1; [10]): -13.9846% | autophagy induction (TERT-RPE1; [11]): -9.926% | autophagy induction (TERT-RPE1; [12]): -10.0998% | autophagy induction (TERT-RPE1; [13]): -12.1834% | autophagy induction (TERT-RPE1; [14]): -11.0664%

N#Cc1cccc(C(=O)Nc2cc(-c3ccccc3)nn2-c2ccccc2)c1
autophagy induction (U2OS [1]; [3]): 0.2338% | autophagy induction (U2OS [1]; [4]): 1.876% | autophagy induction (U2OS [1]; [5]): 9.199% | autophagy induction (U2OS [1]; [6]): 8.756% | autophagy induction (U2OS [1]; [7]): -6.937% | autophagy induction (U2OS [1]; [8]): -1.593% | autophagy induction (U2OS [1]; [9]): 2.3802% | autophagy induction (U2OS [1]; [10]): -5.115% | autophagy induction (U2OS [1]; [11]): 0.7229% | autophagy induction (U2OS [1]; [12]): 5.625% | autophagy induction (U2OS [1]; [13]): -1.742% | autophagy induction (U2OS [1]; [14]): -2.793% | autophagy induction (U2OS [2]; [3]): -5.641% | autophagy induction (U2OS [2]; [4]): -2.328% | autophagy induction (U2OS [2]; [5]): -2.122% | autophagy induction (U2OS [2]; [6]): -3.431% | autophagy induction (U2OS [2]; [7]): 0.2801% | autophagy induction (U2OS [2]; [8]): -3.069% | autophagy induction (U2OS [2]; [9]): -2.148% | autophagy induction (U2OS [2]; [10]): -2.332% | autophagy induction (U2OS [2]; [11]): -0.7756% | autophagy induction (U2OS [2]; [12]): -1.607% | autophagy induction (U2OS [2]; [13]): -0.5457% | autophagy induction (U2OS [2]; [14]): -0.9476% | autophagy induction (TERT-RPE1; [3]): -7.699% | autophagy induction (TERT-RPE1; [4]): -6.069% | autophagy induction (TERT-RPE1; [5]): 3.327% | autophagy induction (TERT-RPE1; [6]): 19.4837% | autophagy induction (TERT-RPE1; [7]): -8.111% | autophagy induction (TERT-RPE1; [8]): -9.075% | autophagy induction (TERT-RPE1; [9]): -9.172% | autophagy induction (TERT-RPE1; [10]): -3.858% | autophagy induction (TERT-RPE1; [11]): -3.603% | autophagy induction (TERT-RPE1; [12]): -4.896% | autophagy induction (TERT-RPE1; [13]): -4.571% | autophagy induction (TERT-RPE1; [14]): -1.999%

COc1ccc(C2(O)OC(=O)C(c3ccc4c(c3)OCO4)=C2Cc2cc(OC)c(OC)c(OC)c2)cc1 (stereo not drawn) [PD-156707]
autophagy induction (U2OS [1]; [3]): 2.427% | autophagy induction (U2OS [1]; [4]): 7.779% | autophagy induction (U2OS [1]; [5]): 2.534% | autophagy induction (U2OS [1]; [6]): -0.8382% | autophagy induction (U2OS [1]; [7]): -5.016% | autophagy induction (U2OS [1]; [8]): 3.24% | autophagy induction (U2OS [1]; [9]): -2.65% | autophagy induction (U2OS [1]; [10]): -6.1634% | autophagy induction (U2OS [1]; [11]): -12.4956% | autophagy induction (U2OS [1]; [12]): -10.1664% | autophagy induction (U2OS [1]; [13]): -12.3712% | autophagy induction (U2OS [1]; [14]): -18.4825% | autophagy induction (U2OS [2]; [3]): -0.3009% | autophagy induction (U2OS [2]; [4]): 0.4369% | autophagy induction (U2OS [2]; [5]): -0.07956% | autophagy induction (U2OS [2]; [6]): -0.9865% | autophagy induction (U2OS [2]; [7]): -2.496% | autophagy induction (U2OS [2]; [8]): -1.926% | autophagy induction (U2OS [2]; [9]): -0.6682% | autophagy induction (U2OS [2]; [10]): -1.242% | autophagy induction (U2OS [2]; [11]): -0.3825% | autophagy induction (U2OS [2]; [12]): -1.441% | autophagy induction (U2OS [2]; [13]): -0.8744% | autophagy induction (U2OS [2]; [14]): -0.2319% | autophagy induction (TERT-RPE1; [3]): -7.977% | autophagy induction (TERT-RPE1; [4]): -6.312% | autophagy induction (TERT-RPE1; [5]): -1.3569% | autophagy induction (TERT-RPE1; [6]): 6.352% | autophagy induction (TERT-RPE1; [7]): -3.2518% | autophagy induction (TERT-RPE1; [8]): -7.638% | autophagy induction (TERT-RPE1; [9]): -7.617% | autophagy induction (TERT-RPE1; [10]): -7.701% | autophagy induction (TERT-RPE1; [11]): -8.81% | autophagy induction (TERT-RPE1; [12]): -9.172% | autophagy induction (TERT-RPE1; [13]): -8.276% | autophagy induction (TERT-RPE1; [14]): -11.0822%
